Data taken from patent US12083106B2, “Methods of using a pharmaceutical composition containing pirfenidone in sustained-release tablet form” (Excalibur Pharmaceuticals, Inc., priority 2011, dated 2024).

Tests used:
[1] = Pirfenidone bioavailability study in healthy volunteers; format: in vivo, human; details: 600 mg sustained-release tablet form; 11 healthy volunteers
Method: Pirfenidone Bioavailability Study in Healthy Volunteers According to the Pharmacopoeia Standards
Said analyses were performed by a laboratory authorized by the Mexican Health Secretariat (Data not shown).
Maximum concentration data evidenced that the bioavailability is extrapolated to other lower concentrations, i.e., 100, 200 or 400 mg.

[2] = tested on: chronic renal failure secondary to primary nephropathy; experiment: Prospective, open label, 12-month clinical trial in patients with primary nephropathy with renal damage; format: in vivo, human; details: oral sustained-release tablets every 12 hours, 12 months
Method: The present study is a prospective, open label, 12-month clinical trial including 30 patients with primary nephropathy, with renal damage (stages 1 to 4 of the KDIGO Classification) between 10 and 40 years of age, from both sexes. […] Said evaluation phase was useful so that the patient could become his/her own control. All of the patients received oral Pirfenidone (in sustained-release tablet form) administered every 12 hours containing 2400 mg/1.73 m^2 BSA, equivalent to […].; besides, they also received a conventional treatment appropriate for primary nephropathy and CRF, such as antihypertensives, alpha-ketoanalogues, phosphate chelating agents, angiotensin II antagonist, low-protein diet, etc. […] Two Doppler ultrasonographic studies were performed on each patient at the beginning of the study and at 12 months. Drug adverse events were evaluated and the loss of renal function and loss percentage were quantified. The use of Pirfenidone in renal function was monitored through cystatin C, plasma reciprocal creatinine and creatinine clearance in 24-hour urine collection.

[3] = tested on: breast capsular contracture; experiment: Pilot open prospective study in patients with breast capsular contracture (Baker scale, echosonography); format: in vivo, human; details: for Implant fibrous capsule ILQ thickness, mean: Inner Lower Quadrant; for Implant fibrous capsule IUQ thickness, mean: Inner Upper Quadrant; for Implant fibrous capsule OLQ thickness, mean: Outer Lower Quadrant; for Implant fibrous capsule OUQ thickness, mean: Outer Upper Quadrant
Method: It is a pilot, open, prospective, longitudinal and analytical essay in which 17 patients diagnosed with an important breast capsular contracture (Grade III and Grade IV, Baker Scale) were treated with Pirfenidone 600 mg administered orally as sustained-release tablets three times per day (every 8 hours) during six months. A blood sample was taken from each patient in order to determine the genetic markers (TGF-β1). […], three Breast echosonographies were made, one at the beginning, the other at the end of the treatment (6 months) and the last one 6 months after the suspension of Pirfenidone treatment (12 months). Two parameters were evaluated: antero-posterior diameter and capsular thickness in all its quadrants (contrasting thickness measurements with the radiological parameters established by Tomas Stavros, 2006 and the radiological clinical correlation of thickness vs Baker Scale established by Alon Zahavi M D, 2006 for the diagnosis of Capsular Contracture). Free liquid in the capsule was looked for, as well as retraction or rupture signs through 5-12 MHz linear or curve transductors. During 12 months, a Breast Clinical Evaluation was also conducted on a monthly basis using Baker Classification. Deformation, texture through palpation and sensitivity were evaluated. A registration of each evaluation was made with digital photographs. The clinical and radiological changes of each breast were evaluated by a plastic surgeon and a qualified radiologist. The statistical analysis included 20 cases, taking into account that 3 patients presented bilateral capsular contracture of different grade in each breast; a total of 20 breasts were analyzed. Finally, the statistical analysis of the ordinal scale variables was conducted with means and ranges; and for the contrasts, Wilcoxon matched-pairs signed-ranks and Chi^2 were used. With regard to the Ratio Interval variables, the mean and standard deviation were used; and for the contrast, Student's t test for paired samples was used in which a case is compared against another case.

[4] = tested on: TGF-β1; experiment: TGF-β1 serum levels in female rats with silicone implants in mammary glands (ELISA); format: in vivo; details: daily oral regimen during 21 days; extended release formula before conversion into tablets
Method: TGF-β1 serum levels determination in female rats submitted to the placement of silicone implants in mammary glands for inducing contracture development are shown in FIG. 5. The animals were administered a daily regimen of oral Pirfenidone during 21 days. […] TGF-β1 levels were determined through a commercial ELISA kit.

[5] = tested on: TGF-β1; experiment: TGF-β1 serum levels in animals with chronic hepatic damage by CCl4 (ELISA); format: in vivo; details: treated vs not treated
[6] = tested on: TNF-α; experiment: TNF-α serum levels in female rats with silicone implants in mammary glands (ELISA); format: in vivo; details: daily oral regimen during 21 days; extended release formula before conversion into tablets
Method: TNF-α serum levels determination in female rats submitted to the placement of silicone implants in mammary glands for inducing contracture development are shown in FIG. 6. The animals administered a daily regimen of oral Pirfenidone during 21 days. […] TNF-α levels were determined through a commercial ELISA kit.

[7] = tested on: TNF-α; experiment: TNF-α serum levels in animals with chronic hepatic damage by CCl4 (ELISA); format: in vivo; details: treated vs not treated
[8] = tested on: progressive renal disease; details: animal models; cited from earlier work
[9] = renal failure patients treated with hemodialysis; cited from earlier work
[10] = tested on: fibrosis in the mammary capsule; details: administered orally; female rats with silicone implants; cited from earlier work
[11] = tested on: focal segmental glomerulosclerosis; details: nephrotic syndrome and focal segmental glomerulosclerosis; cited from earlier work
[12] = tested on: hepatic fibrosis; details: patients with hepatic fibrosis; expanded study; cited from earlier work
[13] = Initial (before treatment), 20 cases

Q: Which “time till which bioavailability is prolonged” value [1] does the source give for Cc1ccc(=O)n(-c2ccccc2)c1 [Pirfenidone, 5-methyl-1-phenyl-2-(1H)-pyridone] here?
A: 12 h

Q: And the “renal damage progression rate” value ([2]; 2400 mg/1.73 m^2 BSA, phases 1-4 KDIGO)?
A: influenced positively

Q: And the “drug side-effects in patients with primary nephropathy” value [2]?
A: limited to a minimum percentage of patients and disappeared rapidly

Q: And the effect on proteinuria [2]?
A: beneficial effect

Q: What about the “histological damage to the affected kidneys (comparative ultrasonographic changes, beginning vs end of treatment)” value [2] of the same compound?
A: detains the histological damage

Q: And the “change of breast capsular contracture grade, all cases” value ([3]; 600 mg SR tablets orally three times per day, six months, 20 cases)?
A: reduction of breast capsular contracture grade

Q: What about the “cases with relapse of capsular contracture (WCSECC to grade III)” value ([3]; 6-month follow up after Pirfenidone discontinuation, 1 case grade IV, use of steroids and excessive exercise) of the same compound?
A: 5%

Q: And the “number of cases WCSECC (Without Clinical or Sonographic Evidence of Capsular Contracture)” value ([3]; 6 Months (end of treatment, 600 mg SR tablets three times per day), 20 cases)?
A: 10 cases

Q: What about the “number of cases with contracture grade I (Baker Scale)” value ([3]; 6 Months, 20 cases) of the same compound?
A: 5 cases

Q: And the “number of cases with contracture grade III (Baker Scale)” value ([3]; 6 Months, 20 cases)?
A: 5 cases

Q: What about the “patients with side effects (stomach aches, fatigue, skin dermatosis, photosensitivity)” value ([3]; 6 of 17 patients) of the same compound?
A: 35%

Q: What about the “mean duration of side effects” value ([3]; 6 patients with side effects) of the same compound?
A: 10.8 days

Q: What about the “BAKER SCALE Mean” value ([3]; 12-month follow-up, n = 20, P 0.0001 vs beginning) of the same compound?
A: 0.5

Q: What about the “number of cases WCSECC” value ([3]; 12 months (6 months after suspension of treatment), 20 cases) of the same compound?
A: 14 cases

Q: And the “number of cases with contracture grade II (Baker Scale)” value ([3]; 12 months, 20 cases)?
A: 1 cases

Q: What about the “number of cases with contracture grade III (Baker Scale)” value ([3]; 12 months, 20 cases) of the same compound?
A: 5 cases

Q: What about the “BAKER SCALE Mean (Range)” value ([3]; Beginning of the study, n = 20) of the same compound?
A: 4 (3-4)

Q: And the “Implant fibrous capsule ILQ thickness, mean” value ([3]; Beginning)?
A: 1.86 centimeters

Q: And the “Implant fibrous capsule IUQ thickness, mean” value ([3]; Beginning)?
A: 1.6 centimeters

Q: And the “Implant fibrous capsule OLQ thickness, mean” value ([3]; Beginning)?
A: 1.775 centimeters

Q: And the “Implant fibrous capsule OUQ thickness, mean” value ([3]; Beginning)?
A: 1.505 centimeters

Q: What about the “Implant fibrous capsule ILQ thickness, mean” value ([3]; End) of the same compound?
A: 1.115 centimeters

Q: And the “Implant fibrous capsule IUQ thickness, mean” value ([3]; End)?
A: 1.19 centimeters

Q: What about the “Implant fibrous capsule OLQ thickness, mean” value ([3]; End) of the same compound?
A: 1.185 centimeters

Q: What about the “Implant fibrous capsule OUQ thickness, mean” value ([3]; End) of the same compound?
A: 1.18 centimeters

Q: And the “number of cases with contracture grade III (Baker Scale)” value [3, 13]?
A: 9 cases

Q: What about the “number of cases with contracture grade IV (Baker Scale)” value [3, 13] of the same compound?
A: 11 cases

Q: And the “breast capsular contracture evolution, Baker scale (FIG. 1)” value ([3]; all the cases, after PFD administration)?
A: important improvement

Q: And the “Initial AP Diameter of the breast implant, mean” value ([3]; echographically measured at the beginning (before treatment))?
A: 7.57 centimeters

Q: And the “AP Diameter at 12 months, mean” value ([3]; echographically measured, P = N.S. vs 6 months)?
A: 6.085 centimeters

Q: What about the “AP Diameter at 6 months, mean” value ([3]; echographically measured, P ≤ .001 vs beginning) of the same compound?
A: 6.425 centimeters

Q: What about the “cases with gradual reduction of antero-posterior diameter (APD) and capsule thickness” value ([3]; echographies at 6 and 12 months, 19 cases) of the same compound?
A: 95%

Q: What about the “cases showing retraction data and light subcapsular liquid” value ([3]; end of the study, group that passed from grade IV to grade III, two cases) of the same compound?
A: 10%

Q: What about the “contracture state of left breast, single patient (FIG. 2)” value ([3]; initially grade III, after six-month PFD administration) of the same compound?
A: Not Detectable by Ultrasound or Clinical Examination

Q: And the “contracture state of both breasts, single patient (FIG. 3)” value ([3]; initially grade IV, end of the protocol)?
A: Capsular Contracture Not Detectable by Ultrasound or Clinical Examination

Q: What about the “cases reduced from grade IV to grade II” value ([3]; of 20 cases (1 case)) of the same compound?
A: 5%

Q: What about the “cases initially grade IV that concluded WCSECC” value ([3]; of 20 cases (5 cases)) of the same compound?
A: 25%

Q: And the “cases reduced from grade IV to grade III” value ([3]; of 20 cases (5 cases))?
A: 25%

Q: And the “cases initially grade III that concluded WCSECC” value ([3]; of 20 cases (9 cases))?
A: 45%

Q: And the “cases concluded Without Clinical or Sonographic Evidence of Capsular Contracture (WCSECC)” value ([3]; of 20 cases (n=14))?
A: 70%

Q: What about the “cases of relapse (FIG. 1)” value ([3]; six-month follow-up) of the same compound?
A: one

Q: And the “relapse, single patient (FIG. 2)” value ([3]; six-month follow-up)?
A: lack of relapse

Q: What about the “action on TGF-β production (TGF-β1 serum levels, FIG. 5)” value [4] of the same compound?
A: extremely potent and selective inhibiting action

Q: And the “TGF-β1 serum level (FIG. 5)” value [5]?
A: lower TGF-β1 serum level

Q: What about the “action on TNF-α (TNF-α serum levels, FIG. 6)” value [6] of the same compound?
A: extremely potent and selective TNF-α inhibiting action

Q: What about the “TNF-α serum level (FIG. 6)” value [7] of the same compound?
A: lower TNF-α serum level

Q: What about the TGF-β expression [8] of the same compound?
A: reduces TGF-β expression

Q: What about the “development of progressive renal disease” value [8] of the same compound?
A: Can prevent the development of progressive renal disease

Q: What about the “growth, development and toxic effects in treated animals” value [8] of the same compound?
A: grew and developed normally and without toxic effects

Q: And the proteinuria levels [8]?
A: Reduces proteinuria levels

Q: What about the “renal function / collagen accumulation in the renal cortex” value [8] of the same compound?
A: Improves renal function reducing collagen accumulation in the renal cortex

Q: And the “urea nitrogen and serum creatinine levels” value [8]?
A: Reduces urea nitrogen and serum creatinine levels

Q: What about the “need to adjust dose in patients with renal damage (pharmacokinetics)” value [9] of the same compound?
A: not necessary to adjust the pirfenidone dose

Q: And the “tolerability in patients with Terminal Chronic Renal Failure (TCRF)” value [9]?
A: well tolerated

Q: What about the “development of fibrosis in the mammary capsule” value [10] of the same compound?
A: prevents the development of the characteristic fibrosis

Q: And the “delay of renal function impairment” value [11]?
A: favorable results

Q: And the “effects evidenced through hepatic biopsy” value [12]?
A: beneficial effects
